Experimental data published in ChEMBL document CHEMBL1201862, “PubChem BioAssay data set” (2004).
Blank lines part the entries; values can stand above or below the compound they belong to. The source made the active and inactive calls.

Experiments:
[1] = target: Mitogen-activated protein kinase 13 (Homo sapiens, UniProt O15264); format: functional
[2] = target: Mast/stem cell growth factor receptor Kit (Homo sapiens, UniProt P10721); format: functional;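 note: KIT entry within a kinase panel assay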
[3] = target: T1, Sentrin-specific protease 6 (Homo sapiens, UniProt Q9GZR1); assay: SENP6 protease inhibitors, SAR follow-up, biochemical, luminescence, set 2 (AID 588598); format: functional
T1 sequence (Q9GZR1 whole entry): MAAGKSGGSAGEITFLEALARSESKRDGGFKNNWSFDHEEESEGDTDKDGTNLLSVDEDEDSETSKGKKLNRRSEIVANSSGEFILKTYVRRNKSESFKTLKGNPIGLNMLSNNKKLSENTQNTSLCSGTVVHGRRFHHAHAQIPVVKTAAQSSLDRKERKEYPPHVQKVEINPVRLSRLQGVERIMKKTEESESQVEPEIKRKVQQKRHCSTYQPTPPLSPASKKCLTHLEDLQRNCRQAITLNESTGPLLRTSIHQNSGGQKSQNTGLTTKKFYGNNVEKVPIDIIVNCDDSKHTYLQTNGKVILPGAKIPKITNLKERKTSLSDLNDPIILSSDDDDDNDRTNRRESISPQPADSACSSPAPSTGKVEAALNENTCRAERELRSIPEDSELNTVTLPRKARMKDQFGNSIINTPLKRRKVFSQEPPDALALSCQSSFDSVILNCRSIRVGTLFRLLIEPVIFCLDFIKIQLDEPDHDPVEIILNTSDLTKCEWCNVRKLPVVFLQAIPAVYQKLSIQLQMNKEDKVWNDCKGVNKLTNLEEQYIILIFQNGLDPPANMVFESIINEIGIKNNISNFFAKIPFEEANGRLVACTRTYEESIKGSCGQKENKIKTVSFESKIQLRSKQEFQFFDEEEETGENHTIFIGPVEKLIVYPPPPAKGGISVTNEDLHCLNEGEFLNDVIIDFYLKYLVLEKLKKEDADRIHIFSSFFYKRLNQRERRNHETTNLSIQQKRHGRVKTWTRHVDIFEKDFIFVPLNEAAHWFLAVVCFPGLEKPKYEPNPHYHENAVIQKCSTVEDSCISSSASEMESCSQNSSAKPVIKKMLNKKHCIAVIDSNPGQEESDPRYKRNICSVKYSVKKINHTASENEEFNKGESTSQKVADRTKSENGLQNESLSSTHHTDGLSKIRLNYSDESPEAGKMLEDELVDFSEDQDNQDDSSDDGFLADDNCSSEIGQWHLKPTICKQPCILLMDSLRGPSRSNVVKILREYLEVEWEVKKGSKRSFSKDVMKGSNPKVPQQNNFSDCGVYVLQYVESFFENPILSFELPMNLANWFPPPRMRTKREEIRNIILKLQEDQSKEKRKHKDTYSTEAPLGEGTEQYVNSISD

Caspase-3 = target: T2, Caspase-3 (Homo sapiens, UniProt P42574); assay: caspase-3 inhibitors as off-family protease, SAR follow-up, selectivity assay for SENP protease inhibitor project, biochemical, luminescence, set 2 (AID 588599); format: functional
T2 sequence (P42574 whole entry): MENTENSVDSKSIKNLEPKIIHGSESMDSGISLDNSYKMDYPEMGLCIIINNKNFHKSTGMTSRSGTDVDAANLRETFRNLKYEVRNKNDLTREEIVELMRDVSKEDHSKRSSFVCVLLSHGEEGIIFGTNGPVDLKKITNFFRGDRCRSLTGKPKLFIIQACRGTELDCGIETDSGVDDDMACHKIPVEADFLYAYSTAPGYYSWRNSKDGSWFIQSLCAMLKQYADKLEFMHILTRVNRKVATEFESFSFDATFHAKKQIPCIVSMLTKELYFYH

[4] = target: T3, Sentrin-specific protease 7 (Homo sapiens, UniProt Q9BQF6); assay: SENP7 protease inhibitors, SAR follow-up, biochemical, luminescence, set 2 (AID 588600); format: functional
T3 sequence (Q9BQF6 whole entry): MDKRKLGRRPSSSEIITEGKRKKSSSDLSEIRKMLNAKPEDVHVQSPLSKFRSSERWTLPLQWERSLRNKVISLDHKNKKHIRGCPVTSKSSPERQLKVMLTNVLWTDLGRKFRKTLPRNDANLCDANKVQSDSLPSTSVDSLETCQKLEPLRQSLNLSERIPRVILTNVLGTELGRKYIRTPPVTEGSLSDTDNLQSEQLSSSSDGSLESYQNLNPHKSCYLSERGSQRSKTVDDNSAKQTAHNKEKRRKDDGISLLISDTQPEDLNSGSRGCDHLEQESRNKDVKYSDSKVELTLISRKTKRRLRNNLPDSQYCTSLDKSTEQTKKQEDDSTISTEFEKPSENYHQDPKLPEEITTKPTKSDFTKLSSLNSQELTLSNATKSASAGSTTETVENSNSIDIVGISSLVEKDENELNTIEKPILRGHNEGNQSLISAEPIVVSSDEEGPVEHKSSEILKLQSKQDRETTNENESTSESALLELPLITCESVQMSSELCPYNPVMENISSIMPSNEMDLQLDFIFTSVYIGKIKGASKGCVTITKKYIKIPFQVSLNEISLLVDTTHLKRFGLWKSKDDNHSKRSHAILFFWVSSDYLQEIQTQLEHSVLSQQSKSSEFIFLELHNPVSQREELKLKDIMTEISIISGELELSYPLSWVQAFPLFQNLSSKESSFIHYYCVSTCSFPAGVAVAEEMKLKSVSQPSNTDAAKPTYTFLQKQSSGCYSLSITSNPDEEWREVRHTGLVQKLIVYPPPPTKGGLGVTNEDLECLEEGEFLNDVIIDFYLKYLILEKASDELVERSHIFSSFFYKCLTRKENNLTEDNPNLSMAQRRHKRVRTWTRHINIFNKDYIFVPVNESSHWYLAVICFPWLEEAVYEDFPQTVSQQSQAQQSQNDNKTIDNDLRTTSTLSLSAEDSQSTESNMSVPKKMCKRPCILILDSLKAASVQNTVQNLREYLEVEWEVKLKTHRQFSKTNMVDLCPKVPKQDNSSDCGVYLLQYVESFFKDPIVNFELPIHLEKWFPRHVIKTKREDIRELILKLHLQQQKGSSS

[5] = target: T4, Sentrin-specific protease 8 (Homo sapiens, UniProt Q96LD8); assay: SENP8 protease inhibitors, SAR follow-up, biochemical, luminescence, set 2 (AID 588601); format: functional
T4 sequence (Q96LD8 whole entry): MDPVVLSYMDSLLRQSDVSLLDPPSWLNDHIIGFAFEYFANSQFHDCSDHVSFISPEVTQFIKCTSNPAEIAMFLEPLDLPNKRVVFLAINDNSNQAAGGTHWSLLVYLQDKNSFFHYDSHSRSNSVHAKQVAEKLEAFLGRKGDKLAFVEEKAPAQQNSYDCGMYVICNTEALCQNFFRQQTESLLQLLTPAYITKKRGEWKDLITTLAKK

[6] = target: Cyclin-dependent kinase 19 (Homo sapiens, UniProt Q9BWU1); assay: Navigating the Kinome. Panel member name: CDC2L6; format: functional
Chain of Cyclin-dependent kinase 19 (Q9BWU1 whole entry): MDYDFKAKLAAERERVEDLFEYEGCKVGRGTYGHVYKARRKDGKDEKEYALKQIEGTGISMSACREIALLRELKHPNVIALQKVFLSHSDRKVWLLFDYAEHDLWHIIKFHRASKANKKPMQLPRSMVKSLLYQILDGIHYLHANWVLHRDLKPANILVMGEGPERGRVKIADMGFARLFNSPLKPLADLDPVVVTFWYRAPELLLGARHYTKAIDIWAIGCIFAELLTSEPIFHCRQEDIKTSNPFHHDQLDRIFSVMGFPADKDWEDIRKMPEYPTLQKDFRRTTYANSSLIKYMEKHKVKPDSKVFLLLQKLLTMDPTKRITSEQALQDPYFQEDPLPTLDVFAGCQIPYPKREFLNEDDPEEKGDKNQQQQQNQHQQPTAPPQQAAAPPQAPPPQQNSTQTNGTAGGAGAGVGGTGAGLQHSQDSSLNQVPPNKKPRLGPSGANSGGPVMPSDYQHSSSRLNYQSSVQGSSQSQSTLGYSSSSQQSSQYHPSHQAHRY

[7] = target: Cyclin-dependent kinase 8 (Homo sapiens, UniProt P49336); assay: Navigating the Kinome. Panel member name: CDK8; format: functional
[8] = control 3'UTR Renilla luciferase suppression, dose response, counter-screen for Shn3 inhibitor project, cell-based, Clone20-Shn3RL, cherry-picked (AID 624133); format: functional
[9] = Shn3 3'UTR reporter inhibitors, dose response, cell-based, Clone20 osteoblasts, firefly luciferase, cherry-picked (AID 624132); format: functional;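 note: firefly luciferase luminescence from reporter carrying the Shn3 3'UTR in osteoblasts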
[10] = Fluorescence-based cell-based high throughput dose response assay for inhibitors of the interaction of nucleotide-binding oligomerization domain containing 2 (NOD2) and the receptor-interacting serine-threonine kinase 2 (RIPK2).; format: functional; details: Homo sapiens
[11] = HepG2 cell cytotoxicity, dose response, cytotoxicity control for Shn3 inhibitor project, CellTiter-Glo, cherry-picked (AID 624134); format: functional, cell-based
Beta Lactamase = Beta Lactamase (Pseudomonas aeruginosa, UniProt Q932Y6); assay: beta-lactamase reporter inhibitor potency, dose response, artefact control for NOD2-RIPK2 interaction inhibitor project, BLA reporter cells, FRET fluorescence (AID 651552); format: functional, cell-based
[12] = target: Latent membrane protein 1 (Human herpesvirus 4 (strain B95-8), UniProt P03230); assay: TES1-eGFP NF-kB reporter inhibition versus Tet-On dsRED, dose response, selectivity assay for LMP1 NF-kB inhibitor project, imaging, HEK293T, dual-color eGFP/dsRED, cherry-picks (AID 588398); format: functional, cell-based
Chain of Latent membrane protein 1 (P03230 whole entry): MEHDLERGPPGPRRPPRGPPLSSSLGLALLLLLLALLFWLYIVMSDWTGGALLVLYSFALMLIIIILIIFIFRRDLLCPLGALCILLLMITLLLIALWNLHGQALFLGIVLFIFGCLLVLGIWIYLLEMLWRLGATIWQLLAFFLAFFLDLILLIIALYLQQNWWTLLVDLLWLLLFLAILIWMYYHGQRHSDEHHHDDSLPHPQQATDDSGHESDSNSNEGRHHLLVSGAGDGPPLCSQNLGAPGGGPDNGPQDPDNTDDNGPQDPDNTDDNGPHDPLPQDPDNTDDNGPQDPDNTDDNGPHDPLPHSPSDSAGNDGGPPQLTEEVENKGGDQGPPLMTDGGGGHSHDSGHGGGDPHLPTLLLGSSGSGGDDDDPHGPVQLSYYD

Beta-galactosidase = Beta-galactosidase (Escherichia coli, UniProt Q8VNN2); assay: beta-galactosidase enzyme inhibitors and activators, dose response, artefact control for CCR6 antagonist project, biochemical, E. coli enzyme, set 3 (AID 504712); format: functional
Chain of Beta-galactosidase (Q8VNN2 whole entry): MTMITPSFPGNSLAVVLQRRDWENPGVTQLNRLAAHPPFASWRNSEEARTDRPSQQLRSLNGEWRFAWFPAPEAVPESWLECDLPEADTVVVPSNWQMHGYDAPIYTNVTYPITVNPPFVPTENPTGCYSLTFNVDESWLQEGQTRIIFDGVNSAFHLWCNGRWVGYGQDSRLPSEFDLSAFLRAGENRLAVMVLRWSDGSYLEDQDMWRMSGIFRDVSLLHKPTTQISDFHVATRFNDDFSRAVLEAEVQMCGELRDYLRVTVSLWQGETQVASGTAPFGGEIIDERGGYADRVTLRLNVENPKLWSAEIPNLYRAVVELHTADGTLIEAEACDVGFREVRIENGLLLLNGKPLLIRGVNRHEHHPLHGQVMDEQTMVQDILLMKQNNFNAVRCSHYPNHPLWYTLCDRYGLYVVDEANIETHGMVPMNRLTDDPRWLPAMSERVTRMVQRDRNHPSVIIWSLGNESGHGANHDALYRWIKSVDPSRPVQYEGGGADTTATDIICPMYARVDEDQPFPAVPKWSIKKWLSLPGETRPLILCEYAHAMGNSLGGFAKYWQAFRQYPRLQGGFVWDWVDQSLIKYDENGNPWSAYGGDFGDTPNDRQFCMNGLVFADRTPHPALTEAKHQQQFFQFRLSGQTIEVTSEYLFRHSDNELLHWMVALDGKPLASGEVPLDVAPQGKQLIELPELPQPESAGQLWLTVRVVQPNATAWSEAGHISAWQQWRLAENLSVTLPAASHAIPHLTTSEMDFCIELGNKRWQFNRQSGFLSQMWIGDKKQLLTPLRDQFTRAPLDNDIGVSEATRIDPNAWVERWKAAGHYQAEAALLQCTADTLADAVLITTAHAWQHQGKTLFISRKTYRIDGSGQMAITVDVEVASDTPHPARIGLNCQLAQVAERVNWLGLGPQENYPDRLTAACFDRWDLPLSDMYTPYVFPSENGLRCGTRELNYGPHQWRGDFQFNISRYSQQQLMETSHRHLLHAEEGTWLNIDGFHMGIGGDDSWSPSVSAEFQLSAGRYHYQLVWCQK

[13] = target: Induced myeloid leukemia cell differentiation protein Mcl-1 (Homo sapiens, UniProt Q07820); format: functional
Chain of Induced myeloid leukemia cell differentiation protein Mcl-1 (Q07820 whole entry): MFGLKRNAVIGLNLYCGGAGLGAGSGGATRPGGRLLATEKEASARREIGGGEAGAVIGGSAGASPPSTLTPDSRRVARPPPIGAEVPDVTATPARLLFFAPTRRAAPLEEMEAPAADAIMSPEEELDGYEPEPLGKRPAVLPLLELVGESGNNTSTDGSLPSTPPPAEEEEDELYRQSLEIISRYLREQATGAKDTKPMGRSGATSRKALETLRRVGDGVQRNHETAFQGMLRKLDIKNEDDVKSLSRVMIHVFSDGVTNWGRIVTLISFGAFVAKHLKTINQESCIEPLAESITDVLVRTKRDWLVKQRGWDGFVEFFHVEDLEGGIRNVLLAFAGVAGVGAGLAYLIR

[14] = target: Neurotensin receptor type 1 (Homo sapiens, UniProt P30989); format: functional;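 note: Image-based confirmatory dose-response assay measuring agonist activity at NTR1; NTR1-expressing U2OS osteosarcoma cells imaged for beta-arrestin GFP spot formation; agonist potency where compounds increase beta-arrestin recruitment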
HEK293 = assay: inhibitors of LMP1-driven NF-kB reporter, dose response, cell-based, HEK293, luciferase, cherry-pick (AID 588343); format: functional; details: Homo sapiens
[15] = target: Homeodomain-interacting protein kinase 2 (Homo sapiens, UniProt Q9H2X6); format: functional;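 note: measured within a kinome-wide kinase profiling panel, HIPK2 being one panel member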
Chain of Homeodomain-interacting protein kinase 2 (Q9H2X6 whole entry): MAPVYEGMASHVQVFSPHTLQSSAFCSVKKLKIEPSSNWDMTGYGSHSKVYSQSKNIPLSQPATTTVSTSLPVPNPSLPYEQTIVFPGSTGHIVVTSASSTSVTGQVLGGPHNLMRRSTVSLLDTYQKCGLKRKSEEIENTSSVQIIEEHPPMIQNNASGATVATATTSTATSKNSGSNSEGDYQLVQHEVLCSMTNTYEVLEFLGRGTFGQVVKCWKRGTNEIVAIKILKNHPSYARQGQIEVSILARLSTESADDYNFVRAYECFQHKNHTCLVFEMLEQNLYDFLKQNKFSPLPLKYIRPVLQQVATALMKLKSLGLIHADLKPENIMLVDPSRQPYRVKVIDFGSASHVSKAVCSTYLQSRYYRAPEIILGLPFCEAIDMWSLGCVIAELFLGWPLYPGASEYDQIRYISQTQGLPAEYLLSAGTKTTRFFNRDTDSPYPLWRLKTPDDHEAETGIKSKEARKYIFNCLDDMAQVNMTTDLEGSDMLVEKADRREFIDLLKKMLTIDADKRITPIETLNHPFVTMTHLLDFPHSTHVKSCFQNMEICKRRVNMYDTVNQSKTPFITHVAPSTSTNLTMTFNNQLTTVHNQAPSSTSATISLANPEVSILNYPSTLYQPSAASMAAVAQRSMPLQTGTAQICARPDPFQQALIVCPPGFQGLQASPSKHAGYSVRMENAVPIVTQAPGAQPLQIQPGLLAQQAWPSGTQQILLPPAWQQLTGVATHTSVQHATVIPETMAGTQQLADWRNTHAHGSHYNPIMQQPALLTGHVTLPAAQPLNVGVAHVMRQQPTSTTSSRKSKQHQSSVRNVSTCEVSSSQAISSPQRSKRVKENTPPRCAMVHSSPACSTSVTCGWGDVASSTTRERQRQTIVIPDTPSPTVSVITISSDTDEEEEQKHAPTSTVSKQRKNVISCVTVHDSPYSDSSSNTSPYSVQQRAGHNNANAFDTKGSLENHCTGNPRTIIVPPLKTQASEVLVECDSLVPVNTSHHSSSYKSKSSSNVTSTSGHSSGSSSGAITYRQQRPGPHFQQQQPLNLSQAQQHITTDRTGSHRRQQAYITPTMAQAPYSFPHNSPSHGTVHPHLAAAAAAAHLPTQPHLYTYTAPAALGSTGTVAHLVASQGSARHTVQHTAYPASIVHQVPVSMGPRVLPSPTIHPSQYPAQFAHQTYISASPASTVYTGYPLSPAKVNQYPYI

[16] = target: Cell division cycle 7-related protein kinase (Homo sapiens, UniProt O00311); format: functional;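 note: value obtained from a kinome-wide kinase panel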
Chain of Cell division cycle 7-related protein kinase (O00311 whole entry): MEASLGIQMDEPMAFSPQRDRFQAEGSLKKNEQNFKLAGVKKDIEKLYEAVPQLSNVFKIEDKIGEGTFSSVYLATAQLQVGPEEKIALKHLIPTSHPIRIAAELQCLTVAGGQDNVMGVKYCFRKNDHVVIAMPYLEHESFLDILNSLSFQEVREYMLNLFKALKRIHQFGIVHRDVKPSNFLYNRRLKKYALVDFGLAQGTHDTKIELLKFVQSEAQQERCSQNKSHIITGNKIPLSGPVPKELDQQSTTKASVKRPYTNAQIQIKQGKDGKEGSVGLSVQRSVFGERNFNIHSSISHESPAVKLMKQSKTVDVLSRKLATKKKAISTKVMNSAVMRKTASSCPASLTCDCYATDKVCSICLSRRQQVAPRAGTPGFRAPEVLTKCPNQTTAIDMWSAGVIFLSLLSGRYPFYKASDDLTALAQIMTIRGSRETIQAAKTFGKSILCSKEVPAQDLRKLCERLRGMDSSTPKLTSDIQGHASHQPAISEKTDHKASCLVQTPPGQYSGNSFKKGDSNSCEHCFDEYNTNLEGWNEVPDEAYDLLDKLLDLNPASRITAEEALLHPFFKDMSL

[17] = target: Interleukin-1 receptor-associated kinase 4 (Homo sapiens, UniProt Q9NWZ3); format: functional
Chain of Interleukin-1 receptor-associated kinase 4 (Q9NWZ3 whole entry): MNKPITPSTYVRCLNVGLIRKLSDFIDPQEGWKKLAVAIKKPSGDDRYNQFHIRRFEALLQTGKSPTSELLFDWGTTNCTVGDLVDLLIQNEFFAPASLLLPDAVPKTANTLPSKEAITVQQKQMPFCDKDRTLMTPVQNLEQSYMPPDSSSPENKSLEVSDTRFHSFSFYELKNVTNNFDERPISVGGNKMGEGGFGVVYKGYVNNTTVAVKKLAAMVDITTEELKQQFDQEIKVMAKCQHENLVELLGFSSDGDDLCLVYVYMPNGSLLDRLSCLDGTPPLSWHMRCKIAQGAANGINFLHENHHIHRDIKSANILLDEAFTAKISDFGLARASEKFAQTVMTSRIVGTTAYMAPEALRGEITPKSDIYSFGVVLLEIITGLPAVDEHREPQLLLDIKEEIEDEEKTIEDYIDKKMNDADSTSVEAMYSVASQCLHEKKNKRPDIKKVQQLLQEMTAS

[18] = target: Serine/threonine-protein kinase pim-1 (Homo sapiens, UniProt P11309); format: functional
[19] = target: Mitogen-activated protein kinase kinase kinase kinase 4 (Homo sapiens, UniProt O95819); format: functional
[20] = target: Glycogen synthase kinase-3 beta (Homo sapiens, UniProt P49841); format: functional;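 note: value comes from a broad kinome profiling panel, with GSK3B as the panel member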
[21] = target: Dual specificity protein kinase CLK4 (Homo sapiens, UniProt Q9HAZ1); format: functional
[22] = target: cAMP-dependent protein kinase catalytic subunit alpha (Homo sapiens, UniProt P17612); format: functional

Chain of Mitogen-activated protein kinase 13 (O15264 whole entry): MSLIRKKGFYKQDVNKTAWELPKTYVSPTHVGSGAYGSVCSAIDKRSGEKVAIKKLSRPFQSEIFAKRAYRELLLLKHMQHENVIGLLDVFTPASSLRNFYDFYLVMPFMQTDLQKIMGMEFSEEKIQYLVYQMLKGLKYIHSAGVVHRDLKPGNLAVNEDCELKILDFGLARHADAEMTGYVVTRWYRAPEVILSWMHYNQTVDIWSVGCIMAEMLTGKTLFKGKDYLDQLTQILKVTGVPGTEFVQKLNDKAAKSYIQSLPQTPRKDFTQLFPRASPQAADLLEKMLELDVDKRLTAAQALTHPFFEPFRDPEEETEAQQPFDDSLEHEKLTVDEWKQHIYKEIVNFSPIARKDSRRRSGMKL

Ki [1]: > 7.94 µM (inactive)
Ki [2]: > 1.26 µM (inactive)
SMILES: COc1cc(-c2nn(C3CCC(N4CCN(C(C)=O)CC4)CC3)c3ncnc(N)c23)ccc1NC(=O)c1cc2ccccc2n1C (stereo unspecified)

IC50 [3]: > 99 µM (inactive)
IC50 (Caspase-3): > 99 µM (inactive)
IC50 [4]: > 99 µM (inactive)
SMILES: NS(=O)(=O)c1ccc(CCNC(=O)C(=O)c2c[nH]c3ccccc23)cc1
IC50 [5]: > 99 µM (inactive)

Ki [6]: > 100 µM (inactive)
Ki [7]: 3.98 µM (active)
SMILES: Nc1nsc2cccc(C(=O)Nc3cccc(CNC(=O)Nc4cccc(F)c4)c3)c12

SMILES: CCOc1ccc(/C=C/[N+](=O)[O-])c2ccccc12
AC50 [8]: 13.9 µM (active)
AC50 [9]: 4.27 µM (active)
IC50 [10]: 1.76 µM (active)
AC50 [11]: 3.78 µM (active)
IC50 (Beta Lactamase): 43.1 µM (inactive)
AC50 [12]: 1.63 µM (active)
IC50 (Beta-galactosidase): > 66.6 µM (inactive)
IC50 [13]: 2.18 µM (active)
EC50 [14]: 9.56 µM (active)
AC50 (HEK293): 4.67 µM (active)

Ki [15]: 0.2 µM (active)
Ki [16]: 0.0126 µM (active)
Ki [17]: 0.0631 µM (active)
Ki [18]: 3.98 µM (active)
Ki [19]: 0.0398 µM (active)
Ki [20]: 0.158 µM (active)
Ki [21]: 0.01 µM (active)
Ki [22]: 2 µM (active)
SMILES: NC(=O)c1ccc(Nc2ncnc3[nH]cc(-c4ccccc4)c23)cc1
